Values after ≈ are worked out from the molar mass of the structure shown. Like-named read-outs stand apart in the source and are kept apart here.
How the values were obtained:
[1] = system: T. brucei brucei GUTat 3.1; assay: In vitro anti-trypanosomal activity (Alamar Blue); type: cell-based, Trypanosoma brucei brucei; settings: for Selectivity Index (SI): (IC50 for MRC-5)/(IC50 for T. brucei brucei); for IC50: Trypanosoma brucei, read-out: IC50 anti-trypanosomal activity; for IC50 / IC50 anti-trypanosomal activity: 72 h
Protocol: With collections of the natural-product-inspired molecules in hand, in vitro anti-trypanosomal activities were evaluated by employing a GUTat 3.1 strain of T. brucei brucei (Table 1) according to the previously reported protocols (Supporting Information File 1). […] Thus, this preliminary assessment supports the idea that the collections of natural-product-inspired scaffolds could have high hit rates against biological screenings, even without having structural information about the biological targets and small-molecule modulators related to the targeted cellular functions. Further screening investigations of the synthetic collections prepared in the four-step process are currently underway in our laboratories.
Assay for in vitro anti-trypanosomal activity against T. brucei species According to a procedure previously used in [Toriizuka et al. Bioorg. Med. Chem. 2008, 16, 10182–10189.], Trypanosoma brucei brucei strain GUTat 3.1 (Glasgow University, Trypanozoon antigenic type 3.1) was generously donated from Dr. Y. Yabu (Nagoya City University). T. brucei brucei GUTat 3.1 strain was cultured in IMDM with 3.024 g/L NaHCO3, 100 μM hypoxanthine, 30 μM thymidine, 40 μM adenosine, 1.0 mM sodium pyruvate, 50 μM L-glutamine, 100 μM 2-mercaptoethanol, 50 U/mL of penicillin, and 50 μg/mL of streptomycin containing 10% heat-inactivated FBS at 37 °C, under 5.0% CO2–95% air, according to the protocol of [Yabu et al.
Southeast Asian J. Trop. Med. Public Health 1998, 29, 591]. In vitro antitrypanosomal activity of the test compounds was evaluated from a dose–response curve utilizing the fluorescent dye, Alamar Blue, according to the method of [Räz et al. Acta Trop. 1997, 68, 139 and Tasdemir et al.
Antimicrob. Agents Chemother. 2006, 50, 1352] with some modifications. Ninety-five microliters of trypanosome suspension ([…] trypanosomes/mL for GUTat 3.1 strain) of bloodstream forms was seeded into a 96-well microplate and 5.0 μL of test compound solution (dissolved in 5.0% dimethylsulfoxide: DMSO) was added. After incubating for 72 h at 37 °C under 5.0% CO2–95% air, 10 μL of Alamar Blue was added to each well. After further incubation for 3–6 h at 37 °C under 5.0% CO2–95% air, the microplate was measured at 528/20 nm excitation wavelength and 590/35 nm emission wavelength with an FLx800 fluorescent plate reader (Bio-Tek Instrument, Inc.Vermont, USA). Data were transferred into a graphic program (Excel) and the 50% inhibitory concentration (IC50) values were determined with fluorescent plate reader software (KC-4, […]
(§1) Cytotoxicity tests on MRC-5 cells
(§2) The human diploid embryonic cell line, MRC-5, was a generous gift from Dr. L. Maes (Tibotec NV, Mechelen, Belgium). Cytotoxicity of the test compound was measured by the colorimetric MTT assay [Mossman, T. J. Immunol. Methods 1983, 65, 55 and Otoguro, K. et al. ATLA:Alternatives to Laboratory Animals 1991, 19, 352] in 96-well microplates. In brief, 100 μL of MRC-5 cell suspension was added to 96-well microplates at 1 × 10^3 cells/well and the cells were cultured for 24 h. Then, 90 μL of standard culture medium (MEM + 10% FCS) with or without 10 μL of test compound solution that was dissolved in 25% ethanol or 5% DMSO was added to each well.
(§3) Further incubation was conducted at 37 °C under 5% CO2–95% air for 7 days and then 20 μL of MTT–PBS solution (5 mg/mL) was added to each well. The microplate was incubated at 37 °C for 4 h under 5% CO2–95% air. Then, the incubation medium was aspirated and 100 μL of DMSO was added to solubilize the MTT formazan product. After mixing, absorbance at 540 nm was measured with iEMS microplate reader MF. The IC50 value was estimated from the dose–response curve.

[2] = Cytotoxicity on MRC-5 cells (MTT assay); type: cell-based; settings: human, MRC-5 cells (human diploid embryonic cell line)
Protocol: as §1, §2, §3

[3] = T. brucei brucei GUTat 3.1 strain, 2.0–2.5 × 10^4 trypanosomes/mL
[4] = T. brucei brucei GUTat 3.1 strain

Row | Compound | Selectivity Index (SI) [1] | IC50 [1, 3] [µg/mL] | IC50 at 7 days [2] [µg/mL] | IC50 anti-trypanosomal activity [1, 3] [µg/mL] | antitrypanosomal activity (in words) [1, 4] | IC50 [1] [µg/mL]
1 | COc1ccc(CN2C(=O)[C@@]3(C)CCCN4C(=O)[C@]5(C(C)=O)O[C@@]43[C@@]3(c4ccccc4N(S(=O)(=O)c4ccccc4[N+](=O)[O-])[C@H]53)[C@@H]2C(=O)NC(C)(C)C)cc1 (racemic) [25a] | 4.1 | 5.9 (≈ 7.64 µM) | 24.5 (≈ 31.7 µM) |  |  | 
2 | N=C(N)c1ccc(OCCCCCOc2ccc(C(=N)N)cc2)cc1 [pentamidine, reference compound] | 3600 | 0.00158 (≈ 0.00464 µM) | 5.71 (≈ 16.8 µM) |  |  | 
3 | CC(=O)C12CC3CN(C(C(=O)NC(C)(C)C)c4cn(S(=O)(=O)c5ccccc5[N+](=O)[O-])c5ccccc45)C(=O)C4(C)CCCN(C1=O)C34O2 (stereo not shown) [39b] | 8.7 |  | 4.02 (≈ 5.81 µM) | 0.46 (≈ 0.665 µM) |  | 
4 | CC(=O)C12OC34N(CCCC3(C)N(C(CC(C)C)C(=O)NC(C)(C)C)C(=O)C43c4ccccc4N(S(=O)(=O)c4ccccc4[N+](=O)[O-])C13)C2=O (stereo not shown) [63b] |  |  |  |  | insignificant activities | 
5 | CC(=O)[C@@]12C[C@@H]3CN([C@H](C(=O)NC(C)(C)C)c4c[nH]c5ccccc45)C(=O)[C@@]4(C)CCCN(C1=O)[C@@]34O2 [39c] |  | > 12.5 |  |  | substantial loss of the activities | 
6 | Cc1ccc(C(=O)Nc2ccc(S(=O)(=O)O)c3cc(S(=O)(=O)O)cc(S(=O)(=O)O)c23)cc1NC(=O)c1cccc(NC(=O)Nc2cccc(C(=O)Nc3cc(C(=O)Nc4ccc(S(=O)(=O)O)c5cc(S(=O)(=O)O)cc(S(=O)(=O)O)c45)ccc3C)c2)c1 [suramin, reference compound] | >63 |  | > 100 |  |  | 1.58 (≈ 1.22 µM)
7 | NCCCC(N)(C(=O)O)C(F)F (stereo not shown) [eflornithine, reference compound] | >44 | 2.27 (≈ 12.5 µM) | > 100 |  |  | 
8 | COc1ccc(CN2C(=O)[C@@]3(C)CCCN4C(=O)[C@]5(C(C)=O)O[C@@]43[C@@]3(c4ccccc4N(S(=O)(=O)c4ccccc4[N+](=O)[O-])[C@H]53)[C@H]2C(=O)NC(C)(C)C)cc1 (racemic) [25b] |  | > 12.5 |  |  | negligible | 
9 | CC(=O)[C@@]12O[C@@]34N(CCC[C@]3(C)C(=O)N([C@H](C(=O)NC(C)(C)C)c3cn(S(=O)(=O)c5ccccc5[N+](=O)[O-])c5ccccc35)C[C@]43c4ccccc4N(S(=O)(=O)c4ccccc4[N+](=O)[O-])[C@H]13)C2=O [30b] |  |  |  |  | negligible | > 12.5
10 | CC(=O)[C@]12O[C@]34[C@@H](CN([C@H](C(=O)NC(C)(C)C)c5cn(S(=O)(=O)c6ccccc6[N+](=O)[O-])c6ccccc56)C(=O)[C@@]3(C)CCCN4C1=O)C2(C)C [41b] | 5.9 | 5.89 (≈ 8.18 µM) | 34.6 (≈ 48.1 µM) |  |  | 
11 | CC(=O)C12CC3CN(C(C(=O)NC(C)(C)C)c4cn(S(=O)(=O)c5ccccc5[N+](=O)[O-])c5ccccc45)C(=O)C4(C)CCCN(C1=O)C34O2 (stereo not shown) [39a] |  |  |  | >12.5 | negligible activities | 
12 | CC(=O)[C@@]12O[C@@]34N(CCC[C@]3(C)N([C@@H](CC(C)C)C(=O)NC(C)(C)C)C(=O)[C@]43c4ccccc4N(S(=O)(=O)c4ccccc4[N+](=O)[O-])[C@H]13)C2=O [63a] |  |  |  |  | insignificant activities | 
